Test results reported in patent publication US20080200404A1, “Novel Antimalarial 9A-Carbamoyl-Aminoalkyl and 9A-Thiocarbamoyl-Aminoalkyl Azalides” (priority 2005, published 2008).
≈ marks a conversion by molar mass, not a printed value.

What was measured:
Assay type in all cases: cell-based
[1] = test system: Plasmodium falciparum clone CDC/Indochina III (W-2); assay: In vitro antimalarial [3H]-hypoxanthine incorporation serial dilution assay, W2; conditions: Plasmodium falciparum; P. falciparum W2, 72 hours exposure
Outline: (§1)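 Blood-stage cultures in RPMI-1640 with 6% A+ erythrocytes and human plasma or ALBUMAX, 37° C under 5% CO2/5% O2. Compounds in two-fold dilutions over 11 concentrations; [3H]-hypoxanthine incorporation after 72 h total incubation, CPM normalised to untreated parasite controls; IC50 by non-linear logistic fit.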

[2] = test system: Plasmodium falciparum clone CDC/Sierra Leone I (D-6); assay: In vitro antimalarial [3H]-hypoxanthine incorporation serial dilution assay, D6; conditions: Plasmodium falciparum, D6, 72 h, P. falciparum D6, 72 hours exposure; read-out: IC50 D6
Outline: as §1

[3] = test system: Plasmodium falciparum TM91C235; assay: In vitro antimalarial [3H]-hypoxanthine incorporation assay, TM91C235; conditions: Plasmodium falciparum; P. falciparum TM91C235 (multiple drug resistant isolate), 72 hours exposure
Outline: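 Multidrug-resistant P. falciparum TM91C235 was run at 0.4% parasitemia and 1% hematocrit in folate/PABA-free RPMI-1640 with ALBUMAX, at 37° C under 5% CO2/5% O2. Compound was tested in duplicate at 25,000, 2,500 and 25 ng/ml, preexposed 48 h, then [3H]-hypoxanthine was added (72 h total). Counts are expressed relative to untreated parasite controls.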

SMILES | IC50 [1] [µg/mL] | IC50 [2] [µg/mL] | IC50 [3] [µg/mL]
CC[C@H]1OC(=O)[C@H](C)[C@@H](O[C@H]2C[C@@](C)(OC)[C@@H](O)[C@H](C)O2)[C@H](C)[C@@H](O[C@@H]2O[C@H](C)C[C@H](N(C)C)[C@H]2O)[C@](C)(O)C[C@@H](C)CN(CCCNC(=S)NC(c2ccccc2)(c2ccccc2)c2ccccc2)[C@H](C)[C@@H](O)[C@]1(C)O.O=CO [Example 125] | 0.0422 | 0.142 | 0.0364
CC[C@H]1OC(=O)[C@H](C)[C@@H](O[C@H]2C[C@@](C)(OC)[C@@H](O)[C@H](C)O2)[C@H](C)[C@@H](O[C@@H]2O[C@H](C)C[C@H](N(C)C)[C@H]2O)[C@](C)(O)C[C@@H](C)CN(CCCNC(=S)Nc2cc(-c3ccccc3)ccc2OC)[C@H](C)[C@@H](O)[C@]1(C)O [Example 127] | 0.117 (≈ 0.114 µM) | 0.06 (≈ 0.0581 µM) | 0.0571 (≈ 0.0553 µM)
CC[C@H]1OC(=O)[C@H](C)[C@@H](O[C@H]2C[C@@](C)(OC)[C@@H](O)[C@H](C)O2)[C@H](C)[C@@H](O[C@@H]2O[C@H](C)C[C@H](N(C)C)[C@H]2O)[C@](C)(O)C[C@@H](C)CN(CCCNC(=S)NC23CC4CC(CC(C4)C2)C3)[C@H](C)[C@@H](O)[C@]1(C)O [Example 130] | 0.207 (≈ 0.21 µM) | 0.545 (≈ 0.553 µM) | 0.15 (≈ 0.152 µM)
CC[C@H]1OC(=O)[C@H](C)[C@@H](O[C@H]2C[C@@](C)(OC)[C@@H](O)[C@H](C)O2)[C@H](C)[C@@H](O[C@@H]2O[C@H](C)C[C@H](N(C)C)[C@H]2O)[C@](C)(O)C[C@@H](C)CN(CCCNC(=S)Nc2cccc(F)c2)[C@H](C)[C@@H](O)[C@]1(C)O.O=CO [Example 131] | 0.198 | 0.507 | 0.115
CC[C@H]1OC(=O)[C@H](C)[C@@H](O[C@H]2C[C@@](C)(OC)[C@@H](O)[C@H](C)O2)[C@H](C)[C@@H](O[C@@H]2O[C@H](C)C[C@H](N(C)C)[C@H]2O)[C@](C)(O)C[C@@H](C)CN(CCCNC(=S)Nc2ccc(Cl)c(Cl)c2)[C@H](C)[C@@H](O)[C@]1(C)O [Example 132] | 0.229 (≈ 0.229 µM) | 0.295 (≈ 0.296 µM) | 0.0839 (≈ 0.0842 µM)
CC[C@H]1OC(=O)[C@H](C)[C@@H](O[C@H]2C[C@@](C)(OC)[C@@H](O)[C@H](C)O2)[C@H](C)[C@@H](O[C@@H]2O[C@H](C)C[C@H](N(C)C)[C@H]2O)[C@](C)(O)C[C@@H](C)CN(CCCNC(=S)Nc2ccc(F)c(F)c2F)[C@H](C)[C@@H](O)[C@]1(C)O [Example 133] | 0.162 (≈ 0.165 µM) | 0.441 (≈ 0.449 µM) | 0.0723 (≈ 0.0737 µM)
CC[C@H]1OC(=O)[C@H](C)[C@@H](O[C@H]2C[C@@](C)(OC)[C@@H](O)[C@H](C)O2)[C@H](C)[C@@H](O[C@@H]2O[C@H](C)C[C@H](N(C)C)[C@H]2O)[C@](C)(O)C[C@@H](C)CN(CCCNC(=S)Nc2ccc(OC(F)F)cc2)[C@H](C)[C@@H](O)[C@]1(C)O.O=CO [Example 134] | 0.279 | 0.398 | 0.0997
CC[C@H]1OC(=O)[C@H](C)[C@@H](O[C@H]2C[C@@](C)(OC)[C@@H](O)[C@H](C)O2)[C@H](C)[C@@H](O[C@@H]2O[C@H](C)C[C@H](N(C)C)[C@H]2O)[C@](C)(O)C[C@@H](C)CN(CCCNC(=S)Nc2ccccc2F)[C@H](C)[C@@H](O)[C@]1(C)O.O=CO [Example 136] | 0.396 | 0.978 | 0.121
CC[C@H]1OC(=O)[C@H](C)[C@@H](O[C@H]2C[C@@](C)(OC)[C@@H](O)[C@H](C)O2)[C@H](C)[C@@H](O[C@@H]2O[C@H](C)C[C@H](N(C)C)[C@H]2O)[C@](C)(O)C[C@@H](C)CN(CCCNC(=S)Nc2ccc(Br)cc2)[C@H](C)[C@@H](O)[C@]1(C)O.O=CO [Example 137] | 0.178 | 0.274 | 0.182
CC[C@H]1OC(=O)[C@H](C)[C@@H](O[C@H]2C[C@@](C)(OC)[C@@H](O)[C@H](C)O2)[C@H](C)[C@@H](O[C@@H]2O[C@H](C)C[C@H](N(C)C)[C@H]2O)[C@](C)(O)C[C@@H](C)CN(CCCNC(=S)Nc2ccc(-n3cccn3)cc2)[C@H](C)[C@@H](O)[C@]1(C)O.O=CO [Example 140] | 0.114 | 0.166 | 0.105
CC[C@H]1OC(=O)[C@H](C)[C@@H](O[C@H]2C[C@@](C)(OC)[C@@H](O)[C@H](C)O2)[C@H](C)[C@@H](O[C@@H]2O[C@H](C)C[C@H](N(C)C)[C@H]2O)[C@](C)(O)C[C@@H](C)CN(CCCNC(=S)Nc2ccc(S(=O)(=O)N3CCCCC3)cc2)[C@H](C)[C@@H](O)[C@]1(C)O [Example 141] | 0.057 (≈ 0.0531 µM) | 0.188 (≈ 0.175 µM) | 0.0731 (≈ 0.068 µM)
CC[C@H]1OC(=O)[C@H](C)[C@@H](O[C@H]2C[C@@](C)(OC)[C@@H](O)[C@H](C)O2)[C@H](C)[C@@H](O[C@@H]2O[C@H](C)C[C@H](N(C)C)[C@H]2O)[C@](C)(O)C[C@@H](C)CN(CCCNC(=S)Nc2ccc(N(C)C)c3ccccc23)[C@H](C)[C@@H](O)[C@]1(C)O.O=CO [Example 142] | 0.186 | 0.348 | 0.192
CC[C@H]1OC(=O)[C@H](C)[C@@H](O[C@H]2C[C@@](C)(OC)[C@@H](O)[C@H](C)O2)[C@H](C)[C@@H](O[C@@H]2O[C@H](C)C[C@H](N(C)C)[C@H]2O)[C@](C)(O)C[C@@H](C)CN(CCCNC(=S)NCc2ccco2)[C@H](C)[C@@H](O)[C@]1(C)O.O=CO [Example 143] | 0.439 | 0.322 | 0.234
CC[C@H]1OC(=O)[C@H](C)[C@@H](O[C@H]2C[C@@](C)(OC)[C@@H](O)[C@H](C)O2)[C@H](C)[C@@H](O[C@@H]2O[C@H](C)C[C@H](N(C)C)[C@H]2O)[C@](C)(O)C[C@@H](C)CN(CCCNC(=S)Nc2ccc(Oc3ccccc3)nc2)[C@H](C)[C@@H](O)[C@]1(C)O.O=CO [Example 146] | 0.117 | 0.23 | 0.142
CC[C@H]1OC(=O)[C@H](C)[C@@H](O[C@H]2C[C@@](C)(OC)[C@@H](O)[C@H](C)O2)[C@H](C)[C@@H](O[C@@H]2O[C@H](C)C[C@H](N(C)C)[C@H]2O)[C@](C)(O)C[C@@H](C)CN(CCCNC(=S)Nc2ccsc2C(=O)OC)[C@H](C)[C@@H](O)[C@]1(C)O.O=CO [Example 147] | 0.389 | 0.469 | 0.343
CC[C@H]1OC(=O)[C@H](C)[C@@H](O[C@H]2C[C@@](C)(OC)[C@@H](O)[C@H](C)O2)[C@H](C)[C@@H](O[C@@H]2O[C@H](C)C[C@H](N(C)C)[C@H]2O)[C@](C)(O)C[C@@H](C)CN(CCCNC(=S)Nc2sc3c(c2C(=O)OC)CCCC3)[C@H](C)[C@@H](O)[C@]1(C)O [Example 148] | 0.24 (≈ 0.229 µM) | 0.862 (≈ 0.825 µM) | 0.426 (≈ 0.407 µM)
CC[C@H]1OC(=O)[C@H](C)[C@@H](O[C@H]2C[C@@](C)(OC)[C@@H](O)[C@H](C)O2)[C@H](C)[C@@H](O[C@@H]2O[C@H](C)C[C@H](N(C)C)[C@H]2O)[C@](C)(O)C[C@@H](C)CN(CCCNC(=S)NCC(C)C)[C@H](C)[C@@H](O)[C@]1(C)O.O=CO [Example 149] | 0.472 | 0.657 | 0.414
CC[C@H]1OC(=O)[C@H](C)[C@@H](O[C@H]2C[C@@](C)(OC)[C@@H](O)[C@H](C)O2)[C@H](C)[C@@H](O[C@@H]2O[C@H](C)C[C@H](N(C)C)[C@H]2O)[C@](C)(O)C[C@@H](C)CN(CCCNC(=S)Nc2cccc3nsnc23)[C@H](C)[C@@H](O)[C@]1(C)O.O=CO [Example 150] | 0.091 | 0.181 | 0.105
